Experimental data taken from PubChem BioAssay AID1963858 (Molecular Pharmacology Branch, DTP, NCI, 2024).
Values joined by “and” are separate entries in the source; they are usually repeats but may differ in a detail not shown here. Identical values can stand only once.

Tested on: HOP-62 multicell spheroids with HUVEC/MSC, viability
Test: Anticancer human tumor HOP-62 cell line growth inhibition [KRAS2];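 note: viability read after a week of compound exposure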;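 for viability, T/C: 100% = DMSO vehicle-treated spheroids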
Details: for viability, T/C: stronger effect = lower value
Summary of the method: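 KRAS-mutant tumor cells were grown as spheroids with HUVEC endothelial cells and human MSCs as stroma. Targeted agents were tested alone and with KRAS pathway inhibitors. Doses started at or near clinical Cmax, or 10 microM, descending half-log.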

[1] = curve of first compound, second compound 0.1 µM
[2] = curve of first compound, second compound 0.316 µM
[3] = curve of first compound, second compound 1 µM
[4] = curve of first compound, second compound 3.16 µM
[5] = curve of first compound, second compound 10 µM
[6] = second compound 0.1 µM, first compound 0.0316 µM
[7] = second compound 0.1 µM, first compound 0.1 µM
[8] = second compound 0.1 µM, first compound 0.316 µM
[9] = second compound 0.1 µM, first compound 1 µM
[10] = second compound 0.1 µM, first compound 3.16 µM
[11] = second compound 0.1 µM, first compound 10 µM
[12] = second compound 0.316 µM, first compound 0.0316 µM
[13] = second compound 0.316 µM, first compound 0.1 µM
[14] = second compound 0.316 µM, first compound 0.316 µM
[15] = second compound 0.316 µM, first compound 1 µM
[16] = second compound 0.316 µM, first compound 3.16 µM
[17] = second compound 0.316 µM, first compound 10 µM
[18] = second compound 1 µM, first compound 0.0316 µM
[19] = second compound 1 µM, first compound 0.1 µM
[20] = second compound 1 µM, first compound 0.316 µM
[21] = second compound 1 µM, first compound 1 µM
[22] = second compound 1 µM, first compound 3.16 µM
[23] = second compound 1 µM, first compound 10 µM
[24] = second compound 3.16 µM, first compound 0.0316 µM
[25] = second compound 3.16 µM, first compound 0.1 µM
[26] = second compound 3.16 µM, first compound 0.316 µM
[27] = second compound 3.16 µM, first compound 1 µM
[28] = second compound 3.16 µM, first compound 3.16 µM
[29] = second compound 3.16 µM, first compound 10 µM
[30] = second compound 10 µM, first compound 0.0316 µM
[31] = second compound 10 µM, first compound 0.1 µM
[32] = second compound 10 µM, first compound 0.316 µM
[33] = second compound 10 µM, first compound 1 µM
[34] = second compound 10 µM, first compound 3.16 µM
[35] = second compound 10 µM, first compound 10 µM

## CC(C)NCC(C(=O)N1CCN(c2ncnc3c2C(C)CC3O)CC1)c1ccc(Cl)cc1 (centres undefined) + COc1cc2nc(C)nc(NC(C)c3cc(N)cc(C(F)(F)F)c3)c2cc1OC1CCOC1
[1]
  IC50: 649 nM
[2]
  IC50: 412 nM
[3]
  IC50: 222 nM
[4]
  IC50: 416 nM
[5]
  IC50: < 31.6 nM
[6]
  viability, T/C: 101%
[7]
  viability, T/C: 85.5%
[8]
  viability, T/C: 73%
[9]
  viability, T/C: 38.3%
[10]
  viability, T/C: 9.92%
[11]
  viability, T/C: 6.97%
[12]
  viability, T/C: 92.5%
[13]
  viability, T/C: 85.4%
[14]
  viability, T/C: 58.7%
[15]
  viability, T/C: 21.6%
[16]
  viability, T/C: 7.46%
[17]
  viability, T/C: 6.79%
[18]
  viability, T/C: 91%
[19]
  viability, T/C: 67.8%
[20]
  viability, T/C: 42.8%
[21]
  viability, T/C: 20%
[22]
  viability, T/C: 5.76%
[23]
  viability, T/C: 3.7%
[24]
  viability, T/C: 63.1%
[25]
  viability, T/C: 59.1%
[26]
  viability, T/C: 64%
[27]
  viability, T/C: 11.2%
[28]
  viability, T/C: 6.02%
[29]
  viability, T/C: 5.53%
[30]
  viability, T/C: 49.1%
[31]
  viability, T/C: 33.8%
[32]
  viability, T/C: 23.7%
[33]
  viability, T/C: 10.7%
[34]
  viability, T/C: 8.2%
[35]
  viability, T/C: 5.6%

## COc1cc(Nc2ncc3c(n2)-c2ccc(Cl)cc2C(c2c(F)cccc2OC)=NC3)ccc1C(=O)O + C=CC(=O)N1CCN(c2nc(OCC3CCCN3C)nc3c2CCN(c2cccc4cccc(C)c24)C3)CC1CC#N
Curve of first compound, second compound 0.0316 µM
  IC50: < 31.6 nM
[1]
  IC50: < 31.6 nM
[2]
  IC50: < 31.6 nM
[3]
  IC50: < 31.6 nM
[4]
  IC50: < 31.6 nM
Second compound 0.0316 µM, first compound 0.0316 µM
  viability, T/C: 42.7%
Second compound 0.0316 µM, first compound 0.1 µM
  viability, T/C: 35.9%
Second compound 0.0316 µM, first compound 0.316 µM
  viability, T/C: 32.6%
Second compound 0.0316 µM, first compound 1 µM
  viability, T/C: 27.1%
Second compound 0.0316 µM, first compound 3.16 µM
  viability, T/C: 19.7%
Second compound 0.0316 µM, first compound 10 µM
  viability, T/C: 14.6%
[6]
  viability, T/C: 35.7%
[7]
  viability, T/C: 28.9%
[8]
  viability, T/C: 25.1%
[9]
  viability, T/C: 22.3%
[10]
  viability, T/C: 17.4%
[11]
  viability, T/C: 11.7%
[12]
  viability, T/C: 24.4%
[13]
  viability, T/C: 19.5%
[14]
  viability, T/C: 17%
[15]
  viability, T/C: 14.3%
[16]
  viability, T/C: 15%
[17]
  viability, T/C: 11.3%
[18]
  viability, T/C: 20.6%
[19]
  viability, T/C: 15.5%
[20]
  viability, T/C: 16.6%
[21]
  viability, T/C: 16.3%
[22]
  viability, T/C: 13.9%
[23]
  viability, T/C: 9.29%
[24]
  viability, T/C: 10.8%
[25]
  viability, T/C: 1.27%
[26]
  viability, T/C: 4.55%
[27]
  viability, T/C: 7.12%
[28]
  viability, T/C: 1.43%
[29]
  viability, T/C: 0.67%

## CC(=O)Nc1cccc(-n2c(=O)n(C3CC3)c(=O)c3c(Nc4ccc(I)cc4F)n(C)c(=O)c(C)c32)c1 + CC1OCC2(CCN(c3cnc(Sc4ccnc(N)c4Cl)c(N)n3)CC2)C1N
[1]
  IC50: 2.14 nM
[2]
  IC50: 0.877 nM
[3]
  IC50: 0.167 nM
[4]
  IC50: < 0.1 nM
[5]
  IC50: < 0.1 nM
Second compound 0.1 µM, first compound 0.0001 µM
  viability, T/C: 93.8%
Second compound 0.1 µM, first compound 0.000316 µM
  viability, T/C: 86.2%
Second compound 0.1 µM, first compound 0.001 µM
  viability, T/C: 67.9%
Second compound 0.1 µM, first compound 0.00316 µM
  viability, T/C: 41%
Second compound 0.1 µM, first compound 0.01 µM
  viability, T/C: 29.1%
[6]
  viability, T/C: 28.5%
Second compound 0.316 µM, first compound 0.0001 µM
  viability, T/C: 79.8%
Second compound 0.316 µM, first compound 0.000316 µM
  viability, T/C: 64.2%
Second compound 0.316 µM, first compound 0.001 µM
  viability, T/C: 49.8%
Second compound 0.316 µM, first compound 0.00316 µM
  viability, T/C: 33.8%
Second compound 0.316 µM, first compound 0.01 µM
  viability, T/C: 22.9%
[12]
  viability, T/C: 25.8%
Second compound 1 µM, first compound 0.0001 µM
  viability, T/C: 55.2%
Second compound 1 µM, first compound 0.000316 µM
  viability, T/C: 42.8%
Second compound 1 µM, first compound 0.001 µM
  viability, T/C: 33.5%
Second compound 1 µM, first compound 0.00316 µM
  viability, T/C: 21.5%
Second compound 1 µM, first compound 0.01 µM
  viability, T/C: 20.2%
[18]
  viability, T/C: 21.5%
Second compound 3.16 µM, first compound 0.0001 µM
  viability, T/C: 25.8%
Second compound 3.16 µM, first compound 0.000316 µM
  viability, T/C: 16.9%
Second compound 3.16 µM, first compound 0.001 µM
  viability, T/C: 14.4%
Second compound 3.16 µM, first compound 0.00316 µM
  viability, T/C: 17.7%
Second compound 3.16 µM, first compound 0.01 µM
  viability, T/C: 15.4%
[24]
  viability, T/C: 15.7%
Second compound 10 µM, first compound 0.0001 µM
  viability, T/C: 20.2%
Second compound 10 µM, first compound 0.000316 µM
  viability, T/C: 14.3%
Second compound 10 µM, first compound 0.001 µM
  viability, T/C: 15.3%
Second compound 10 µM, first compound 0.00316 µM
  viability, T/C: 14.2%
Second compound 10 µM, first compound 0.01 µM
  viability, T/C: 12.4%
[30]
  viability, T/C: 13.7%

## COc1cc2nccc(Oc3ccc(NC(=O)C4(C(=O)Nc5ccc(F)cc5)CC4)cc3)c2cc1OC + COc1cc2nc(C)nc(NC(C)c3cc(N)cc(C(F)(F)F)c3)c2cc1OC1CCOC1
[1]
  IC50: > 10000 nM
[2]
  IC50: > 10000 nM
[3]
  IC50: > 10000 nM
[4]
  IC50: 901 nM
[5]
  IC50: 235 nM
[6]
  viability, T/C: 100%
[7]
  viability, T/C: 113%
[8]
  viability, T/C: 113%
[9]
  viability, T/C: 80.8%
[10]
  viability, T/C: 63.8%
[11]
  viability, T/C: 123%
[12]
  viability, T/C: 89.4%
[13]
  viability, T/C: 114%
[14]
  viability, T/C: 126%
[15]
  viability, T/C: 85.8%
[16]
  viability, T/C: 59.4%
[17]
  viability, T/C: 114%
[18]
  viability, T/C: 86.8%
[19]
  viability, T/C: 92.2%
[20]
  viability, T/C: 101%
[21]
  viability, T/C: 55.9%
[22]
  viability, T/C: 47%
[23]
  viability, T/C: 97.5%
[24]
  viability, T/C: 71.8%
[25]
  viability, T/C: 94.9%
[26]
  viability, T/C: 81.6%
[27]
  viability, T/C: 46%
[28]
  viability, T/C: 0.59%
[29]
  viability, T/C: 94%
[30]
  viability, T/C: 54.9%
[31]
  viability, T/C: 49.1%
[32]
  viability, T/C: 49.3%
[33]
  viability, T/C: 24.5%
[34]
  viability, T/C: 0.58%
[35]
  viability, T/C: 73%

## CC1OCC2(CCN(c3cnc(Sc4ccnc(N)c4Cl)c(N)n3)CC2)C1N (centres undefined)
Compound 0.0316 µM
  viability, T/C: 103% (2×) and 77%
Compound 0.1 µM
  viability, T/C: 92.2% [middle of 19 runs]
Compound alone, run of 07/12/2021
  IC50: 2.29 µM [middle of 6 runs]
Curve of compound
  IC50: > 10000 nM and 3820 nM and 9820 nM
